# Data reported in PMC10281575, “PfCRT mutations conferring piperaquine resistance in falciparum malaria shape the kinetics of quinoline drug binding and transport” (PLOS Pathogens, 2023).
# Where “and” joins values, the source holds several entries; their conditions need not be identical. Identical values can stand only once.
# Target: T1, PfCRT^Dd2_F145I (Plasmodium falciparum, UniProt Q8IBZ9, A220S/F145I/I356T/K76T/M74I/N326S/N75E/Q271E/R371I)
# T1 construct: expressed in transfected cells; host or cells: Xenopus laevis oocytes injected with in vitro transcribed RNA (pSP64T)
# T1 sequence (Q8IBZ9 1-424 M74I/N75E/K76T/F145I/A220S/Q271E/N326S/I356T/R371I): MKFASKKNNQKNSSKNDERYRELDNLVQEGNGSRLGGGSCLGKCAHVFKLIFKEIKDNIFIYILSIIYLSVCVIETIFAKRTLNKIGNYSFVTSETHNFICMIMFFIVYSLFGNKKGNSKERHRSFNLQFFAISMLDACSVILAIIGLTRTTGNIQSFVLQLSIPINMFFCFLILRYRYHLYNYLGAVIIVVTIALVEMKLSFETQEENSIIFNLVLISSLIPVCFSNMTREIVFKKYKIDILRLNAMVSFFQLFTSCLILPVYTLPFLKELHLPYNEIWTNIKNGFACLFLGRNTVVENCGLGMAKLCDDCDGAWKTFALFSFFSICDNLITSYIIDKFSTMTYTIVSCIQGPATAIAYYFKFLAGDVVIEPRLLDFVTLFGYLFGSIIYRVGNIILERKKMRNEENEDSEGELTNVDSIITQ
# Assay: Competition kinetics of drug transport (radiolabeled substrate plus cold inhibitor), PfCRT^Dd2_F145I-expressing oocytes
# Type: cell-based
# Description: To further characterize the kinetic relationship between CQ and PPQ, we performed a series of competition reactions. To this end, water-injected oocytes and PfCRT-expressing oocytes were incubated in medium containing one of seven concentrations of radio-labeled CQ and one of six concentrations of cold PPQ for 60 min before the amount of radio-labeled CQ uptake was determined. The rate of PfCRT-mediated CQ uptake was calculated for each condition by subtracting the corresponding value obtained for water-injected oocytes from those of PfCRT-expressing oocytes. The results were analyzed as a function of the CQ concentration (Fig 4A) and 16 different models of substrate competition were globally fit to the data by the least-squares method, using Python. The models were ranked, according to their Akaike information criterion difference (ΔAICC) and their Akaike weight (Fig 4B), with the most plausible model being the one with the lowest AICC (ΔAICC = 0) and the highest Akaike weight.
# A complementary set of experiments was undertaken to investigate the kinetic mechanism by which PfCRT^Dd2_F145I accepts CQ and PPQ (Fig 6). […] These included a global fit of the substrate competition data to the 16 kinetic models (Fig 6), analysis of the secondary plots (Vmax,app and Vmax,app/KM,app as a function of the inhibitor concentration) (Fig 7A), a fractional velocity plot analysis (Fig 7B) and a comparison of the experimental data with the modelled data using the noncompetitive inhibition equation (Fig 7C to 7F). […] The fractional velocity plot illustrated the partial character of the noncompetitive inhibition mechanism by yielding a partiality factor β^CQ = 0.31 ± 0.04, by which PPQ reduces the transport velocity of CQ (Fig 7B). […] A 3D model of the kinetics between PfCRT^Dd2_F145I, CQ and PPQ, and analyses of the residuals as a function of substrate and inhibitor concentrations confirmed that the model was also an appropriate explanation for the mutant transporter (Fig 7C to 7F).
# Drug transport assays were performed as previously described. Briefly, measurements of radiolabeled drug uptake were made over 1 h, unless otherwise specified. […] Where specified, one or more unlabeled drugs were also present at the indicated concentrations. The direction of drug transport in the assays is from the extracellular medium (pH 6) into the oocyte cytosol (pH 7.2), which corresponds to the efflux of CQ or PPQ from the acidic digestive vacuole (pH 5.2) into the parasite cytosol (pH 7.2). The uptake assays were terminated by removing the oocytes from the reaction medium and washing them three times with 2 mL of ice-cold ND96 buffer. Each oocyte was transferred to a separate scintillation vial and lysed by the addition of 200 μL of a 5% SDS solution. The radioactivity in the sample was measured using a liquid scintillation analyser Tri-Carb 4910 TR (PerkinElmer). Water-injected oocytes were analyzed in parallel as a negative control. The buffer from each condition was measured in duplicate in parallel to each experiment to transform counts per minute into pmol of drug. Drug uptake attributable to PfCRT was determined by subtracting the background uptake from water-injected oocytes from that of PfCRT-expressing oocytes. In all cases, at least three independent experiments were performed on oocytes from different frogs, and for each condition in an experiment, measurements were made from 10 oocytes per treatment.
# The following equations were adopted from Segel (1993), and the reader is referred to that text for the assumptions made in the author’s approach in the derivation of each equation [31]. The concentration of substrate is denoted as [S1] and the concentration of the inhibiting substrate is denoted as [S2]. KS1 and KS2 are the dissociation constants for the respective substrate-protein complexes.
# Analyses of the kinetic data were performed using SigmaPlot version 13.0 and Python. […]
structure (smiles),measurement,setting,value
"CCN(CC)CCCC(C)Nc1ccnc2cc(Cl)ccc12 (stereo not shown) [CQ, chloroquine]",PfCRTDd2_F145I-mediated CQ transport,"10 µM CQ, 50 µM PPQ",0.59 pmol oocyte-1 h-1 and 0.39 pmol oocyte-1 h-1
same,PfCRTDd2_F145I-mediated CQ transport,"10 µM CQ, 125 µM PPQ",0.68 pmol oocyte-1 h-1 and 0.58 pmol oocyte-1 h-1 and 0.47 pmol oocyte-1 h-1
same,PfCRTDd2_F145I-mediated CQ transport,"10 µM CQ, 200 µM PPQ",0.27 pmol oocyte-1 h-1 and 0.32 pmol oocyte-1 h-1 and 0.33 pmol oocyte-1 h-1
same,PfCRTDd2_F145I-mediated CQ transport,"10 µM CQ, 350 µM PPQ",0.43 pmol oocyte-1 h-1 and 0.31 pmol oocyte-1 h-1 and 0.46 pmol oocyte-1 h-1
same,PfCRTDd2_F145I-mediated CQ transport,"50 µM CQ, 0 µM PPQ",3.80 pmol oocyte-1 h-1 and 4.28 pmol oocyte-1 h-1 and 2.84 pmol oocyte-1 h-1
same,PfCRTDd2_F145I-mediated CQ transport,"50 µM CQ, 50 µM PPQ",3.24 pmol oocyte-1 h-1 and 2.4 pmol oocyte-1 h-1 and 3.22 pmol oocyte-1 h-1
same,PfCRTDd2_F145I-mediated CQ transport,"50 µM CQ, 125 µM PPQ",3.47 pmol oocyte-1 h-1 and 2.37 pmol oocyte-1 h-1 and 2.11 pmol oocyte-1 h-1
same,PfCRTDd2_F145I-mediated CQ transport,"50 µM CQ, 200 µM PPQ",2.85 pmol oocyte-1 h-1 and 2.54 pmol oocyte-1 h-1 and 2.07 pmol oocyte-1 h-1
same,PfCRTDd2_F145I-mediated CQ transport,"50 µM CQ, 350 µM PPQ",1.72 pmol oocyte-1 h-1 and 1.78 pmol oocyte-1 h-1 and 2.56 pmol oocyte-1 h-1
same,PfCRTDd2_F145I-mediated CQ transport,"50 µM CQ, 500 µM PPQ",1.90 pmol oocyte-1 h-1 and 2.40 pmol oocyte-1 h-1
same,PfCRTDd2_F145I-mediated CQ transport,"100 µM CQ, 0 µM PPQ",5.25 pmol oocyte-1 h-1 and 7.33 pmol oocyte-1 h-1 and 8.14 pmol oocyte-1 h-1
same,PfCRTDd2_F145I-mediated CQ transport,"100 µM CQ, 125 µM PPQ",4.86 pmol oocyte-1 h-1 and 5.68 pmol oocyte-1 h-1 and 5.61 pmol oocyte-1 h-1
same,PfCRTDd2_F145I-mediated CQ transport,"100 µM CQ, 200 µM PPQ",4.12 pmol oocyte-1 h-1 and 4.69 pmol oocyte-1 h-1 and 4.23 pmol oocyte-1 h-1
same,PfCRTDd2_F145I-mediated CQ transport,"100 µM CQ, 350 µM PPQ",3.37 pmol oocyte-1 h-1 and 4.27 pmol oocyte-1 h-1 and 5.15 pmol oocyte-1 h-1
same,PfCRTDd2_F145I-mediated CQ transport,"200 µM CQ, 0 µM PPQ",12.53 pmol oocyte-1 h-1 and 12.79 pmol oocyte-1 h-1
same,PfCRTDd2_F145I-mediated CQ transport,"200 µM CQ, 50 µM PPQ",14.25 pmol oocyte-1 h-1 and 10 pmol oocyte-1 h-1 and 10.59 pmol oocyte-1 h-1
same,PfCRTDd2_F145I-mediated CQ transport,"200 µM CQ, 125 µM PPQ",10.11 pmol oocyte-1 h-1 and 9.30 pmol oocyte-1 h-1 and 9.95 pmol oocyte-1 h-1
same,PfCRTDd2_F145I-mediated CQ transport,"200 µM CQ, 200 µM PPQ",7.48 pmol oocyte-1 h-1 and 7.15 pmol oocyte-1 h-1 and 10.15 pmol oocyte-1 h-1
same,PfCRTDd2_F145I-mediated CQ transport,"200 µM CQ, 350 µM PPQ",6.25 pmol oocyte-1 h-1 and 7.4 pmol oocyte-1 h-1 and 8.42 pmol oocyte-1 h-1
same,PfCRTDd2_F145I-mediated CQ transport,"200 µM CQ, 500 µM PPQ",7.88 pmol oocyte-1 h-1 and 6.35 pmol oocyte-1 h-1
same,PfCRTDd2_F145I-mediated CQ transport,"300 µM CQ, 0 µM PPQ",13.73 pmol oocyte-1 h-1 and 19.15 pmol oocyte-1 h-1
same,PfCRTDd2_F145I-mediated CQ transport,"300 µM CQ, 50 µM PPQ",13.84 pmol oocyte-1 h-1 and 14.19 pmol oocyte-1 h-1 and 16.04 pmol oocyte-1 h-1
same,PfCRTDd2_F145I-mediated CQ transport,"300 µM CQ, 125 µM PPQ",11.05 pmol oocyte-1 h-1 and 9.73 pmol oocyte-1 h-1 and 15.82 pmol oocyte-1 h-1
same,PfCRTDd2_F145I-mediated CQ transport,"300 µM CQ, 200 µM PPQ",10.02 pmol oocyte-1 h-1 and 12.63 pmol oocyte-1 h-1 and 9.83 pmol oocyte-1 h-1
same,PfCRTDd2_F145I-mediated CQ transport,"300 µM CQ, 350 µM PPQ",9.31 pmol oocyte-1 h-1 and 9.21 pmol oocyte-1 h-1 and 10.66 pmol oocyte-1 h-1
same,PfCRTDd2_F145I-mediated CQ transport,"300 µM CQ, 500 µM PPQ",9.09 pmol oocyte-1 h-1 and 11.47 pmol oocyte-1 h-1
same,PfCRTDd2_F145I-mediated CQ transport,"400 µM CQ, 0 µM PPQ",14.23 pmol oocyte-1 h-1 and 18.19 pmol oocyte-1 h-1
same,PfCRTDd2_F145I-mediated CQ transport,"400 µM CQ, 50 µM PPQ",15.01 pmol oocyte-1 h-1 and 14.7 pmol oocyte-1 h-1 and 18.28 pmol oocyte-1 h-1
same,PfCRTDd2_F145I-mediated CQ transport,"400 µM CQ, 125 µM PPQ",14.33 pmol oocyte-1 h-1 and 12.62 pmol oocyte-1 h-1 and 13.88 pmol oocyte-1 h-1
same,PfCRTDd2_F145I-mediated CQ transport,"400 µM CQ, 200 µM PPQ",9.98 pmol oocyte-1 h-1 and 13.36 pmol oocyte-1 h-1 and 12.15 pmol oocyte-1 h-1
same,PfCRTDd2_F145I-mediated CQ transport,"400 µM CQ, 350 µM PPQ",7.72 pmol oocyte-1 h-1 and 13.35 pmol oocyte-1 h-1 and 10.83 pmol oocyte-1 h-1
same,PfCRTDd2_F145I-mediated CQ transport,"500 µM CQ, 0 µM PPQ",19.16 pmol oocyte-1 h-1 and 17.86 pmol oocyte-1 h-1
same,PfCRTDd2_F145I-mediated CQ transport,"500 µM CQ, 50 µM PPQ",16.43 pmol oocyte-1 h-1 and 15.64 pmol oocyte-1 h-1 and 17.36 pmol oocyte-1 h-1
same,PfCRTDd2_F145I-mediated CQ transport,"500 µM CQ, 125 µM PPQ",14.97 pmol oocyte-1 h-1 and 16.69 pmol oocyte-1 h-1 and 12.9 pmol oocyte-1 h-1
